Test results as given in article PMC10281575, “PfCRT mutations conferring piperaquine resistance in falciparum malaria shape the kinetics of quinoline drug binding and transport” (PLOS Pathogens, 2023).
Values joined by “and” are separate entries in the source; they are usually repeats but may differ in a detail not shown here. Identical values can stand only once. Like-named read-outs stand apart in the source and are kept apart here.

Target: T1, PfCRT^Dd2 (Plasmodium falciparum, UniProt Q8IBZ9, A220S/I356T/K76T/M74I/N326S/N75E/Q271E/R371I)
T1 sequence (Q8IBZ9 1-424 M74I/N75E/K76T/A220S/Q271E/N326S/I356T/R371I): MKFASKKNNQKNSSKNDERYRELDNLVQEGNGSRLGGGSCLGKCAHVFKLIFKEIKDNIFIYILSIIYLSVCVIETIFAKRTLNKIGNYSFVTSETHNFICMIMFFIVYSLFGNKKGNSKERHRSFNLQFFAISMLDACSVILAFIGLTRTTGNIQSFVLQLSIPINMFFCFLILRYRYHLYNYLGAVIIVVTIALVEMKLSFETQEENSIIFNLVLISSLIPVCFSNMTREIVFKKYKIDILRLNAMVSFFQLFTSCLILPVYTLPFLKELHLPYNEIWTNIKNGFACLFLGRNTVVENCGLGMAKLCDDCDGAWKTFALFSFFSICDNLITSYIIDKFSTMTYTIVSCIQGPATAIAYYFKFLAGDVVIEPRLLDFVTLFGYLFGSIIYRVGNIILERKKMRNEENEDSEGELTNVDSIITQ
Assay: Competition kinetics of drug transport (radiolabeled substrate plus cold inhibitor), PfCRT^Dd2-expressing oocytes
Assay type: cell-based
Design: expressed in transfected cells; host or cells: Xenopus laevis oocytes injected with in vitro transcribed RNA (pSP64T)
Conditions: for PfCRTDd2-mediated CQ transport 500 µM CQ: single replicates; for Vmax, maximal velocity of drug transport: global fit; for β, partiality factor: factor on transport of the labeled drug by the other drug
Experimental: The experimental procedure and the data analysis were as described above.
The difference between the two models lies in the value of α, a parameter describing how much the affinity for the substrate changes when the inhibitor is already bound, and vice versa. […] The resulting Vmax,app values and the Vmax,app/KM,app ratios were plotted as a function of the inhibitor concentration (Fig 5A).
Drug transport assays were performed as previously described. Briefly, measurements of radiolabeled drug uptake were made over 1 h, unless otherwise specified. […] Where specified, one or more unlabeled drugs were also present at the indicated concentrations. […] The uptake assays were terminated by removing the oocytes from the reaction medium and washing them three times with 2 mL of ice-cold ND96 buffer. Each oocyte was transferred to a separate scintillation vial and lysed by the addition of 200 μL of a 5% SDS solution. The radioactivity in the sample was measured using a liquid scintillation analyser Tri-Carb 4910 TR (PerkinElmer). Water-injected oocytes were analyzed in parallel as a negative control. The buffer from each condition was measured in duplicate in parallel to each experiment to transform counts per minute into pmol of drug. Drug uptake attributable to PfCRT was determined by subtracting the background uptake from water-injected oocytes from that of PfCRT-expressing oocytes. In all cases, at least three independent experiments were performed on oocytes from different frogs, and for each condition in an experiment, measurements were made from 10 oocytes per treatment.
The following equations were adopted from Segel (1993), and the reader is referred to that text for the assumptions made in the author’s approach in the derivation of each equation [31]. The concentration of substrate is denoted as [S1] and the concentration of the inhibiting substrate is denoted as [S2]. KS1 and KS2 are the dissociation constants for the respective substrate-protein complexes.
Analyses of the kinetic data were performed using SigmaPlot version 13.0 and Python. The drug competition models were globally fit to the kinetic data using the least-squares method and ranked according to their corrected Akaike information criterion difference (ΔAICC) and their Akaike weight, using Python. The two top-ranked models were compared using an F-test.
This factor reflects how much the affinity of the transporter for one drug changes when the other drug is already bound in the protein cavity. In the former model, α > 0 and α ≠ 1. In the latter model, it could be thought of as if α = 1. Because of this, discriminating between the two models also means determining the value of α. In Mixed-type (Partial) inhibition, the apparent maximal velocity (Vmax,app) is given by Eq 22, Vmax,app=Vmax(1+β[S2]/αKS2)/(1+[S2]/αKS2) (Eq 22)
Vmax,app is the maximal rate of substrate transport at a certain inhibitor concentration. The half-maximal inhibitory concentration is given by the term in the denominator different from [S2], which in this case is αKS2. This means that by plotting Vmax,app as a function of [S2], the value of αKS2 can be derived after fitting the curve to Eq 23.
The half-maximal inhibitory concentration derived from this hyperbolic equation is equal to KS2. By plotting Vmax,app/KM,app as a function of [S2], one can derive KS2 after fitting the curve to Eq 25. The value of α can then be calculated dividing αKS2 by KS2.

For `CCN(CC)CCCC(C)Nc1ccnc2cc(Cl)ccc12` (stereo not shown) [CQ, chloroquine], the “PfCRTDd2-mediated CQ transport 500 µM CQ” value (0 µM PPQ) was 25.01 pmol oocyte-1 h-1 and 21.69 pmol oocyte-1 h-1 and 19.19 pmol oocyte-1 h-1 and 20.87 pmol oocyte-1 h-1, the “PfCRTDd2-mediated CQ transport 500 µM CQ” value (50 µM PPQ) was 19.01 pmol oocyte-1 h-1 and 16.61 pmol oocyte-1 h-1 and 18.59 pmol oocyte-1 h-1 and the “PfCRTDd2-mediated CQ transport 500 µM CQ” value (125 µM PPQ) was 18.10 pmol oocyte-1 h-1 and 16.11 pmol oocyte-1 h-1 and 15.06 pmol oocyte-1 h-1. The “PfCRTDd2-mediated CQ transport 500 µM CQ” value (200 µM PPQ) was 12.71 pmol oocyte-1 h-1 and 15.12 pmol oocyte-1 h-1 and 13.60 pmol oocyte-1 h-1, the “PfCRTDd2-mediated CQ transport 500 µM CQ” value (350 µM PPQ) was 12.41 pmol oocyte-1 h-1 and 14.97 pmol oocyte-1 h-1 and 10.99 pmol oocyte-1 h-1 and the “PfCRTDd2-mediated CQ transport 500 µM CQ” value (500 µM PPQ) was 15.66 pmol oocyte-1 h-1 and 9.12 pmol oocyte-1 h-1 and 11.85 pmol oocyte-1 h-1. The “most plausible inhibition model” value (16 models, ΔAICC, Akaike weight, F-test, label = cold inhibitor of the other drug's transport) was “partial noncompetitive inhibition”, the “Vmax, maximal velocity of drug transport” value (Mixed (Partial) model, drug as radiolabeled substrate) was 33 ± 1 pmol oocyte^-1 h^-1 and the Kd (Mixed (Partial) model, drug as cold inhibitor, read-out: KS, dissociation constant for the PfCRT-substrate complex) was 210 ± 80 µM. The Kd (Mixed (Partial) model, drug as radiolabeled substrate, read-out: KS, dissociation constant for the PfCRT-substrate complex) was 260 ± 25 µM, the “β, partiality factor” value (Mixed (Partial) model) was 0.38 ± 0.06 and the “α, KS interaction factor” value (Mixed (Partial) model, label = radiolabeled substrate, other drug cold inhibitor) was 1.0 ± 0.2. For the same molecule, the “Vmax, maximal velocity of drug transport” value (Noncompetitive (Partial) model, drug as radiolabeled substrate, other drug as cold inhibitor) was 32 pmol oocyte^-1 h^-1 and 32 ± 1 pmol oocyte^-1 h^-1, the Kd (Noncompetitive (Partial) model, drug as cold inhibitor, read-out: KS, dissociation constant for the PfCRT-substrate complex) was 238 µM and 240 µM and the Kd (Noncompetitive (Partial) model, drug as radiolabeled substrate, read-out: KS, dissociation constant for the PfCRT-substrate complex) was 254 µM and 250 µM. The “β, partiality factor” value (Noncompetitive (Partial) model) was 0.38 and 0.38 ± 0.04, the “KMapp ([3H]CQ + PPQ)” value ([PPQ] 0 µM) was 257.93 µM and the “Vmaxapp ([3H]CQ + PPQ)” value ([PPQ] 0 µM) was 32.70 pmol oocyte-1 h-1. For the same molecule, the “Vmaxapp/KMapp ([3H]CQ + PPQ)” value ([PPQ] 0 µM) was 0.1268 h⁻¹, the “KMapp ([3H]CQ + PPQ)” value ([PPQ] 50 µM) was 250.37 µM and the “Vmaxapp ([3H]CQ + PPQ)” value ([PPQ] 50 µM) was 27.98 pmol oocyte-1 h-1. For the same molecule, the “Vmaxapp/KMapp ([3H]CQ + PPQ)” value ([PPQ] 50 µM) was 0.1117 h⁻¹, the “KMapp ([3H]CQ + PPQ)” value ([PPQ] 125 µM) was 258.31 µM and the “Vmaxapp ([3H]CQ + PPQ)” value ([PPQ] 125 µM) was 25.60 pmol oocyte-1 h-1. For the same molecule, the “Vmaxapp/KMapp ([3H]CQ + PPQ)” value ([PPQ] 125 µM) was 0.0991 h⁻¹, the “KMapp ([3H]CQ + PPQ)” value ([PPQ] 200 µM) was 254.40 µM and the “Vmaxapp ([3H]CQ + PPQ)” value ([PPQ] 200 µM) was 21.83 pmol oocyte-1 h-1. For the same molecule, the “Vmaxapp/KMapp ([3H]CQ + PPQ)” value ([PPQ] 200 µM) was 0.0858 h⁻¹, the “KMapp ([3H]CQ + PPQ)” value ([PPQ] 350 µM) was 250.34 µM and the “Vmaxapp ([3H]CQ + PPQ)” value ([PPQ] 350 µM) was 19.75 pmol oocyte-1 h-1. The “Vmaxapp/KMapp ([3H]CQ + PPQ)” value ([PPQ] 350 µM) was 0.0789 h⁻¹, the “KMapp ([3H]CQ + PPQ)” value ([PPQ] 500 µM) was 247.83 µM and the “Vmaxapp ([3H]CQ + PPQ)” value ([PPQ] 500 µM) was 17.90 pmol oocyte-1 h-1. The “Vmaxapp/KMapp ([3H]CQ + PPQ)” value ([PPQ] 500 µM) was 0.0722 h⁻¹, the “β^CQ, partiality factor” value (fractional velocity plot, factor by which PPQ slows down CQ transport) was 0.35 ± 0.06 and the Kd (secondary plot, half-maximum inhibitory concentration of Vmax,app versus inhibitor concentration, read-out: αKS, dissociation constant between the drug and the PfCRT complex with the other drug) was 220 ± 85 µM. The “α (αKS divided by KS)” value (secondary plots, label = prebound drug) was 1.0 ± 0.3.
